This is an account of results in patent US9663473B2 (Actelion Pharmaceuticals Ltd, priority 2013, dated 2017).

This test has as its target T1, recombinant human ALX receptor (Homo sapiens, UniProt P25090).
T1 construct: expressed in transfected cells; host or cells: HEK293 (HEK293-hALXR-Gα16)
T1 sequence (P25090 1-351): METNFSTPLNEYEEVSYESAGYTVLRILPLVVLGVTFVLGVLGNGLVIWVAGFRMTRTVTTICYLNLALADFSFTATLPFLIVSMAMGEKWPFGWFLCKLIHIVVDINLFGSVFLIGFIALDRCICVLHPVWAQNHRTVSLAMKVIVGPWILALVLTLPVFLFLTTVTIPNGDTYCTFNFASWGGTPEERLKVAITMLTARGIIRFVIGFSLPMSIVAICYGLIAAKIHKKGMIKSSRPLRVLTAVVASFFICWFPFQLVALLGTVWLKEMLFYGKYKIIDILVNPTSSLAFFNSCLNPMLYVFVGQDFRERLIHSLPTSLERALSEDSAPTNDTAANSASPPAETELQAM
The experiment in a line: Intracellular calcium measurements (FLIPR), ALX receptor agonistic activity. Type of test: cell-based. As to conditions: HEK293-hALXR-Gα16 cells, Fluo-4 calcium signal, normalized to WKYMVm 10 nM. The procedure, abridged:
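HEK293 cells co-expressing human ALX receptor and Gα16 were loaded with 1 μM Fluo-4 AM for 60 min at 37° C., then exposed to serially diluted compounds on FLIPR Tetra. Peak fluorescence above baseline (ex 488/em 540 nm) was normalized to 10 nM WKYMVm as high control.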
A general note: A change in cytosolic calcium serves as a functional read-out for many receptors and channels.

On to `O=C(N[C@H](Cc1ccc(Br)cc1)c1nc2ccc(F)cc2[nH]1)NC12CCC(O)(CC1)CC2` [Example 195, (R)-1-(2-(4-Bromophenyl)-1-(6-fluoro-1H-benzo[d]imidazol-2-yl)ethyl)-3-(4-hydroxybicyclo[2.2.2]octan-1-yl)urea], for which the EC50 (in general, the midpoint of the concentration-response curve) came out at 1.1 nM.

`COc1ccc(C[C@@H](NC(=O)NC23CCC(O)(CC2)CC3)c2nc3ccc(F)cc3[nH]2)cc1` [Example 196, (R)-1-(1-(6-Fluoro-1H-benzo[d]imidazol-2-yl)-2-(4-methoxyphenyl)ethyl)-3-(4-hydroxybicyclo[2.2.2]octan-1-yl)urea]: the half-maximal effective concentration (EC50) was 0.8 nM. Regarding `COc1ccc(C[C@@H](NC(=O)NCC(C)c2ccccc2)c2nc3ccccc3[nH]2)cc1` (stereo partly drawn) [Example 197, 1-((R)-1-(1H-Benzo[d]imidazol-2-yl)-2-(4-methoxyphenyl)ethyl)-3-(2-phenylpropyl)urea], the EC50 was determined as 50 nM.

`COc1ccc(C[C@@H](NC(=O)NCc2ccccc2OC(F)F)c2nc3ccccc3[nH]2)cc1` [Example 198, (R)-1-(1-(1H-Benzo[d]imidazol-2-yl)-2-(4-methoxyphenyl)ethyl)-3-(2-(difluoromethoxy)benzyl)urea]: the EC50 worked out at 299 nM.

As for `COc1ccc(C[C@@H](NC(=O)NCc2ccccc2CN(C)C)c2nc3ccccc3[nH]2)cc1` [Example 199, (R)-1-(1-(1H-Benzo[d]imidazol-2-yl)-2-(4-methoxyphenyl)ethyl)-3-(2-((dimethylamino)methyl)benzyl)urea], the concentration for a half-maximal effect (EC50) was 81 nM.

For the compound `COC[C@@H](NC(=O)N[C@H](Cc1ccc(OC)cc1)c1nc2ccccc2[nH]1)c1ccccc1` [Example 200, 1-((R)-1-(1H-Benzo[d]imidazol-2-yl)-2-(4-methoxyphenyl)ethyl)-3-((S)-2-methoxy-1-phenylethyl)urea], the EC50 worked out at 53 nM. The value for `COC[C@H](NC(=O)N[C@H](Cc1ccc(OC)cc1)c1nc2ccccc2[nH]1)c1ccccc1` [Example 201, 1-((R)-1-(1H-Benzo[d]imidazol-2-yl)-2-(4-methoxyphenyl)ethyl)-3-((R)-2-methoxy-1-phenylethyl)urea] was 54 nM; that for `COc1ccc(C[C@@H](NC(=O)NCc2ccccc2C)c2nc3ccccc3[nH]2)cc1` [Example 202, (R)-1-(1-(1H-Benzo[d]imidazol-2-yl)-2-(4-methoxyphenyl)ethyl)-3-(2-methylbenzyl)urea] was 602 nM; that for `COc1ccc(C[C@@H](NC(=O)N[C@H](CO)c2ccccc2)c2nc3ccccc3[nH]2)cc1` [Example 203, 1-((R)-1-(1H-Benzo[d]imidazol-2-yl)-2-(4-methoxyphenyl)ethyl)-3-((S)-2-hydroxy-1-phenylethyl)urea] was 176 nM.

Consider `COC[C@H](Cc1ccccc1)NC(=O)N[C@H](Cc1ccc(OC)cc1)c1nc2ccccc2[nH]1` [Example 204, 1-((R)-1-(1H-Benzo[d]imidazol-2-yl)-2-(4-methoxyphenyl)ethyl)-3-((S)-1-methoxy-3-phenylpropan-2-yl)urea], for which the concentration giving a half-maximal response (EC50) was 5 nM.

As for `COc1ccc(C[C@@H](NC(=O)N[C@@H](CO)Cc2ccccc2)c2nc3ccccc3[nH]2)cc1` [Example 205, 1-((R)-1-(1H-Benzo[d]imidazol-2-yl)-2-(4-methoxyphenyl)ethyl)-3-((R)-1-hydroxy-3-phenylpropan-2-yl)urea], the 50% effective concentration (EC50) was found to be 62 nM. For the compound `COc1ccc(C[C@@H](NC(=O)NCc2cccnc2N2CCOCC2)c2nc3ccccc3[nH]2)cc1` [Example 206, (R)-1-(1-(1H-Benzo[d]imidazol-2-yl)-2-(4-methoxyphenyl)ethyl)-3-((2-morpholinopyridin-3-yl)methyl)urea], the EC50 came out at 144 nM.

Regarding `COc1ccc(C[C@@H](NC(=O)NCc2ccccc2Cl)c2nc3ccccc3[nH]2)cc1` [Example 207, (R)-1-(1-(1H-Benzo[d]imidazol-2-yl)-2-(4-methoxyphenyl)ethyl)-3-(2-chlorobenzyl)urea], the concentration giving a half-maximal response (EC50) was 835 nM. Consider `COc1ccc(C[C@@H](NC(=O)N[C@@H](Cc2ccccc2)C(N)=O)c2nc3ccccc3[nH]2)cc1` [Example 208, (S)-2-(3-((R)-1-(1H-Benzo[d]imidazol-2-yl)-2-(4-methoxyphenyl)ethyl)ureido)-3-phenylpropanamide], for which the concentration for a half-maximal effect (EC50) worked out at 21 nM. In the case of `COc1ccc(C[C@@H](NC(=O)N[C@H](C)[C@@H](O)c2ccccc2)c2nc3ccccc3[nH]2)cc1` [Example 209, 1-((R)-1-(1H-Benzo[d]imidazol-2-yl)-2-(4-methoxyphenyl)ethyl)-3-((1S,2R)-1-hydroxy-1-phenylpropan-2-yl)urea], the EC50 was 1.5 nM. `COc1ccc(C[C@@H](NC(=O)NCc2ccccc2C#N)c2nc3ccccc3[nH]2)cc1` [Example 211, (R)-1-(1-(1H-Benzo[d]imidazol-2-yl)-2-(4-methoxyphenyl)ethyl)-3-(2-cyanobenzyl)urea]: the EC50 is 167 nM.

As for `COc1ccc(C[C@@H](NC(=O)N[C@H](CO)Cc2ccccc2)c2nc3ccccc3[nH]2)cc1` [Example 212, 1-((R)-1-(1H-Benzo[d]imidazol-2-yl)-2-(4-methoxyphenyl)ethyl)-3-((S)-1-hydroxy-3-phenylpropan-2-yl)urea], the EC50 turned out to be 2.8 nM. `COc1ccc(C[C@@H](NC(=O)Nc2c(-c3ccccc3)noc2C)c2nc3ccccc3[nH]2)cc1` [Example 213, (R)-1-(1-(1H-Benzo[d]imidazol-2-yl)-2-(4-methoxyphenyl)ethyl)-3-(5-methyl-3-phenylisoxazol-4-yl)urea]: the EC50 came out at 53 nM.

Consider `COc1ccc(C[C@@H](NC(=O)NC(CN2CCOCC2)c2ccccc2)c2nc3ccccc3[nH]2)cc1` (stereo partly drawn) [Example 214, 1-((R)-1-(1H-Benzo[d]imidazol-2-yl)-2-(4-methoxyphenyl)ethyl)-3-(2-morpholino-1-phenylethyl)urea], for which the concentration giving a half-maximal response (EC50) stood at 28 nM. Turning to `COc1ccc(C[C@@H](NC(=O)NCC(c2ccccc2)N2CCOCC2)c2nc3ccccc3[nH]2)cc1` (stereo partly drawn) [Example 215, 1-((R)-1-(1H-Benzo[d]imidazol-2-yl)-2-(4-methoxyphenyl)ethyl)-3-(2-morpholino-2-phenylethyl)urea], the EC50 amounted to 8.9 nM. `COc1ccc(C[C@@H](NC(=O)NCc2cccnc2COC(C)C(F)(F)F)c2nc3ccccc3[nH]2)cc1` (stereo partly drawn) [Example 216, 1-((R)-1-(1H-Benzo[d]imidazol-2-yl)-2-(4-methoxyphenyl)ethyl)-3-((2-(((1,1,1-trifluoropropan-2-yl)oxy)methyl)pyridin-3-yl)methyl)urea]: the concentration giving a half-maximal response (EC50) worked out at 2.1 nM.

In the case of `COc1ccc(C[C@@H](NC(=O)NCc2nccnc2OCC(F)(F)F)c2nc3ccccc3[nH]2)cc1` [Example 217, (R)-1-(1-(1H-Benzo[d]imidazol-2-yl)-2-(4-methoxyphenyl)ethyl)-3-((3-(2,2,2-trifluoroethoxy)pyrazin-2-yl)methyl)urea], the EC50 amounted to 19 nM. Take `COc1ccc(C[C@@H](NC(=O)NC2COCc3ccccc32)c2nc3ccccc3[nH]2)cc1` (stereo partly drawn) [Example 218, 1-((R)-1-(1H-Benzo[d]imidazol-2-yl)-2-(4-methoxyphenyl)ethyl)-3-(isochroman-4-yl)urea]: the EC50 was determined as 34 nM. For the compound `COc1ccc(C[C@@H](NC(=O)NCc2ccccc2OCC(F)(F)F)c2nc3ccccc3[nH]2)cc1` [Example 219, (R)-1-(1-(1H-Benzo[d]imidazol-2-yl)-2-(4-methoxyphenyl)ethyl)-3-(2-(2,2,2-trifluoroethoxy)benzyl)urea], the EC50 worked out at 14 nM.
